“And” between values parts separate entries of the source, which are not always exact repeats. Equal values may be shown once.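 In this assay, cells in 96-well plates receive the compound at five concentrations for 48 hours. Endpoints are linearly interpolated between the surrounding concentrations. The concentration for 50% growth inhibition is given as GI50. The concentration for full growth arrest is given as TGI.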

The subject of this assay is MDA-MB-468 breast. The assay is described as follows: NCI anticancer screen, dose series, 48 h.
Turning to `CN1CCN(c2ccc(C(=O)Nc3n[nH]c4ccc(Cc5cc(F)cc(F)c5)cc34)c(NC3CCOCC3)c2)CC1`, the GI50 is 1.35 µM; the TGI was 3.09 µM and 2.91 µM.

As for `C=C1C(=O)O[C@H]2[C@H]1CC/C(CNC(=O)/C=C/c1ccc(Br)cc1)=C\CC[C@@]1(C)O[C@@H]21`, the GI50 is 0.391 µM and the TGI amounted to 1.67 µM.

Consider `O=P([O-])(O)OP(=O)([O-])O.[NH-][C@H]1CCCC[C@@H]1[NH-].[OH-].[OH-].[Pt+4]`, for which the GI50 is 18.8 µM and the TGI was 39.9 µM.

As for `Cn1cc(-c2nonc2-c2c[nH]c3ccccc23)c2ccccc21`, the GI50 was 0.304 µM and the TGI was determined as 3.12 µM.

On to `O=[N+]([O-])c1ccc(Nc2ccccc2-c2ccccc2)c2nonc12`, for which the GI50 was 5.2 µM and the TGI is 30.5 µM.

Consider `CC1=C([Se]CC(OC(=O)[C@@H](CSSC(C)(C)C)NC(=O)OC(C)(C)C)C(=O)NC(C)(C)C)C(=O)c2ccccc2C1=O` (stereo not given in full), for which the GI50 is 1.66 µM and the TGI amounted to 3.77 µM.

Regarding `O=S(=O)(Nc1ncccn1)c1ccc(N=Nc2ccc(O)c3ncccc23)cc1`, the GI50 was 8.83 µM and the TGI amounted to 31.2 µM.

With `Cc1c2cnccc2c(C)c2c1c1cc(C3OCCCO3)ccc1n2C`, the GI50 was 0.26 µM and the TGI came to 0.928 µM.

For `Cc1cc(C)nc(NC(N)=NCCc2ccccc2)n1`, the GI50 was 1.91 µM and the TGI turned out to be 8.95 µM.

For `Cc1[nH]ncc1-c1cc2nc(C3CC4CCN3CC4)[nH]c(=O)c2s1` (stereo not given), the GI50 was 9.05 µM and the TGI was 32.2 µM.

With `COc1cc(-c2nn3c(/C=C4/C(=O)Nc5ccccc54)c(-c4ccc(C)cc4)nc3s2)cc(OC)c1OC`, the GI50 is 4.84 µM and the TGI worked out at 30.6 µM.

Take `C[n+]1c(/C=C\C=C\N2CCCCC2)sc2ccccc21`: the GI50 was 0.238 µM and the TGI stood at 3.8 µM.

As for `FC(F)(F)c1ccc(-c2nc(-c3nc4cc(Cl)c(Cl)cc4[nH]3)c3ccccn23)cc1`, the GI50 was 3.05 µM and the TGI is greater than 100 µM.

As for `CN(C)CCCOc1ccccc1NC1=C(Cl)C(=O)C(Nc2ccccc2OCCCN(C)C)=C(Cl)C1=O`, the GI50 was 0.175 µM and the TGI came out at 0.352 µM.

Take `Cc1ccc(C(=O)N(CCCN)[C@@H](c2nc3cc(Cl)ccc3c(=O)n2Cc2ccccc2)C(C)C)cc1`: the GI50 was less than 0.01 µM and the TGI was less than 0.01 µM.

As to `COC(=O)[C@@H](NC(=O)NC(=O)NC(=O)CI)C(C)C`, the GI50 is 3.89 µM and the TGI worked out at 16 µM.

On to `Cc1ccccc1NC(=S)Nc1ccccn1`, for which the GI50 was 11.8 µM and the TGI was 81.2 µM.

In the case of `COc1ccc(-c2[nH]ncc2-c2cc3c(c(OC)c2)OCC(=O)N3)cc1`, the GI50 is 0.354 µM and the TGI was 28.4 µM.

For `COc1cc(C(=O)OCCCCCCCCCCC[P+](c2ccccc2)(c2ccccc2)c2ccccc2)ccc1O`, the GI50 was 0.284 µM and the TGI amounted to 1.09 µM.

Regarding `Cc1c2cc[nH]c(=O)c2c(C)c2c1[nH]c1cc(OCCN3CCN(C)CC3)ccc12`, the GI50 was 0.355 µM and the TGI is 1.87 µM.

Consider `Cn1ccnc1C(=O)/C=C/c1ccc(NC(=O)c2ccc(F)cc2)cc1`, for which the GI50 is 2.87 µM and the TGI came to 15.9 µM.

`COc1cc(/C(Cl)=C/C=C/C(=O)c2c(C)[n+]([O-])c3ccc(Cl)cc3[n+]2[O-])cc(OC)c1OC`: the GI50 was 1.87 µM and the TGI was 9.29 µM.

Turning to `CNC(=O)c1cc(COc2nnc(Nc3ccc(Cl)cc3)c3ccoc23)ccn1`, the GI50 is 6.94 µM and > 10 µM; the TGI was 30.9 µM and > 10 µM.

Turning to `Cc1nc2ccc(CN(C)c3ccc(C(=O)N[C@@H](CCC(=O)O)C(=O)O)s3)cc2c(=O)[nH]1`, the GI50 was 0.0578 µM and the TGI was greater than 100 µM.

`COc1cc2c(cc1OCCCN1CCN(CCCOc3cc4c(cc3OC)C(=O)N3CCC[C@H]3C=N4)CC1)C=CC(C)(C)O2`: the GI50 was 0.469 µM and the TGI was found to be 2.45 µM.

On to `COC1=CC(c2ccc[nH]2)=N/C1=C\c1[nH]c(C)c(C(=O)OCc2ccccc2)c1C`, for which the GI50 was 0.0584 µM and the TGI was 0.73 µM.

With `CC(=O)C1=C(O)C=C2Oc3c(C(=O)/C=C/c4cc(C(F)(F)F)cc(C(F)(F)F)c4)c(O)c(C)c(O)c3[C@]2(C)C1=O`, the GI50 is 1.29 µM and the TGI amounted to 4.46 µM.

With `CO[C@H](C(=O)[C@@H](O)[C@@H](C)O)[C@@H]1Cc2cc3cc(O[C@H]4C[C@@H](O[C@H]5C[C@@H](O)[C@H](O)C(C)O5)[C@H](O)C(C)O4)c(C)c(O)c3c(O)c2C(=O)[C@H]1O[C@H]1C[C@@H](O[C@H]2C[C@@H](O[C@H]3C[C@@H](OC)[C@H](O)C(C)O3)[C@@H](O)C(C)O2)C(O)(O)C(C)O1` (stereo not given in full), the GI50 is 0.138 µM and the TGI turned out to be 1.17 µM.

Take `OCC1OC(c2scc3c(=S)nc[nH]c23)C(O)C1O` (stereo not given): the GI50 is 8.39 µM and the TGI was greater than 100 µM.

Consider `CN1CCc2cc3c(cc2C1O)OCO3` (stereo not given), for which the GI50 is 16 µM and > 100 µM; the TGI is 34.4 µM and > 100 µM.

In the case of `C=CC(=O)Nc1ccc(Nc2nccc(-c3ccc(N4CCCC4)c(C#N)c3)n2)cc1`, the GI50 was 7.43 µM and the TGI is greater than 25 µM.

For `CC(C)[C@](O)(c1ccc2cc(OC(F)F)c(OC(F)F)cc2c1)c1cn[nH]n1`, the GI50 was 20.9 µM and 14.2 µM; the TGI was 57.6 µM and 41.3 µM.

For the compound `O=C(/C=C/c1ccc(B(O)O)cc1)/C=C/c1ccc(B(O)O)cc1`, the GI50 is 1.72 µM and the TGI was 4.34 µM.

For the compound `Nc1ccn(C2OC(CO)C(O)C2F)c(=O)n1` (stereo not given), the GI50 is greater than 5000 µM and the TGI is greater than 5000 µM.

As for `CC/C(Cc1ccccc1)=C(\c1ccc(OCCN2CCCCCC2)cc1)c1ccc(OC(=O)NCc2ccccc2)cc1`, the GI50 was 2.03 µM and the TGI turned out to be 8.15 µM.

Source of the values: PubChem BioAssay (NCI).
